The NIST ThermoML archive (doi:10.1016/j.fluid.2017.08.022)

Conditions: for mass density: 100 kPa, Liquid, Buoyancy - hydrostatic balance with magnetic suspension - one sinker

CCCCn1cc[n+](C)c1.[Cl-] [1-butyl-3-methylimidazolium chloride]
surface tension liquid-gas [mN/m]
Conditions	Ring tensiometer	Wilhelmy Plate
303.11 K	50.32	–
308.23 K	–	49.64
308.27 K	50.3	–
313.06 K	–	49.26
313.07 K	49.73	–
318.04 K	49.68	–
318.07 K	–	48.97
323.1 K	49.23	48.58
327.9 K	–	48.24
327.96 K	48.8	–
333.82 K	–	47.81
333.85 K	48.35	–
338.23 K	48.24	–
338.28 K	–	47.55
342.85 K	47.76	–
343.23 K	–	47.16
348.79 K	47.38	–
348.85 K	–	46.9
353.81 K	–	46.5
353.87 K	47.16	–
357.26 K	–	46.29
357.34 K	46.88	–
364.83 K	46.46	–
364.9 K	–	45.76

Conditions	mass density [kg/m3]
313.05 K	1073.4
318.21 K	1070.57
323.11 K	1067.9
328.37 K	1065.5
334.27 K	1062.01
338.89 K	1059.46
343.88 K	1056.78
349.01 K	1054.21
353.91 K	1051.34
357.34 K	1049.12
364.78 K	1044.98

CCCCCCCCCCn1cc[n+](C)c1.[Cl-] [1-decyl-3-methylimidazolium chloride]
Conditions	surface tension liquid-gas [mN/m]
317.84 K, Ring tensiometer	27.09
323.12 K, Wilhelmy Plate	26.44
323.14 K, Ring tensiometer	26.85
328.25 K, Wilhelmy Plate	26.12
328.26 K, Ring tensiometer	26.45
333.1 K, Wilhelmy Plate	25.87
333.13 K, Ring tensiometer	26.14
338.32 K, Wilhelmy Plate	25.57
338.37 K, Ring tensiometer	25.54
342.9 K, Wilhelmy Plate	25.37
342.95 K, Ring tensiometer	25.7
348.09 K, Wilhelmy Plate	25.15
348.13 K, Ring tensiometer	25.61
353.32 K, Wilhelmy Plate	24.85
353.33 K, Ring tensiometer	24.76
358.44 K, Wilhelmy Plate	24.59
358.57 K, Ring tensiometer	24.5

Conditions	mass density [kg/m3]
317.88 K	973.64
323.19 K	970.69
328.33 K	968.07
333.2 K	964.94
338.44 K	962.23
343.26 K	958.59
348.19 K	956.59
353.38 K	953.42
358.17 K	950.62
363.44 K	947.62

CCn1cc[n+](C)c1.[Cl-] [1-ethyl-3-methylimidazolium chloride]
Conditions	mass density [kg/m3]
313.38 K	1134.76
318.3 K	1132.06
323.25 K	1129.33
328.1 K	1126.5
333.15 K	1124.02
338.1 K	1120.96
342.86 K	1118.28
347.66 K	1115.32
353.21 K	1112.21
359.06 K	1109.07
364.85 K	1106.29

surface tension liquid-gas [mN/m]
Conditions	Ring tensiometer	Wilhelmy Plate
333.2 K	62.56	62.6
338.15 K	62.12	–
338.24 K	–	62.26
343.38 K	62.16	61.82
348.57 K	–	61.51
348.58 K	61.59	–
353.3 K	61.45	–
353.32 K	–	61.1
358.44 K	60.8	–
358.5 K	–	60.64
364.76 K	60.05	–
364.96 K	–	60.2

CCCCCCn1cc[n+](C)c1.[Cl-] [1-hexyl-3-methylimidazolium chloride]
surface tension liquid-gas [mN/m]
Conditions	Ring tensiometer	Wilhelmy Plate
303.19 K	39.83	–
303.22 K	–	39.37
308.21 K	–	39.15
308.22 K	39.58	–
312.93 K	–	38.95
312.95 K	39.37	–
318.33 K	39.1	38.69
323.1 K	–	38.45
323.12 K	38.84	–
328.18 K	–	38.17
328.2 K	38.54	–
333.27 K	–	37.94
333.31 K	38.3	–
338.68 K	–	37.66
338.71 K	37.97	–
343.01 K	–	37.44
343.06 K	37.74	–
348.1 K	–	37.16
348.15 K	37.52	–
353.53 K	–	36.93
353.63 K	37.19	–
358.12 K	–	36.68
358.24 K	37	–
363.07 K	–	36.42
363.17 K	36.72	–

Conditions	mass density [kg/m3]
303.22 K	1035.05
308.25 K	1032.18
313 K	1029.5
318.38 K	1026.54
323.18 K	1023.64
328.31 K	1020.97
333.34 K	1017.64
338.73 K	1014.46
343.06 K	1011.76
348.19 K	1009.28
353.71 K	1006.44
358.14 K	1004
363.17 K	1001.49

CCC[n+]1ccn(C)c1.[Cl-] [1-methyl-3-propylimidazolium chloride]
surface tension liquid-gas [mN/m]
Conditions	Ring tensiometer	Wilhelmy Plate
308.21 K	56.7	–
313.04 K	–	55.61
313.07 K	56.45	–
318.32 K	56.27	–
318.34 K	–	55.41
323.54 K	55.92	54.98
328.41 K	–	54.7
328.46 K	55.49	–
333.49 K	–	54.42
333.5 K	55.37	–
337.95 K	–	54.09
338 K	54.98	–
343.39 K	–	53.8
343.45 K	54.58	–
348.34 K	–	53.59
348.39 K	54.3	–
353.07 K	–	53.29
353.11 K	54.07	–
358.45 K	–	52.95
358.5 K	53.69	–
363.91 K	53.27	–
364.37 K	–	52.57

Conditions	mass density [kg/m3]
308.26 K	1103.45
313.1 K	1100.71
318.25 K	1097.5
323.58 K	1094.84
328.52 K	1091.95
333.54 K	1089.17
338.03 K	1086.64
343.46 K	1083.12
348.39 K	1080.73
353.12 K	1078.37
358.51 K	1075.69
363.89 K	1071.76

Cl.Cn1ccnc1 [1-methylimidazolium chloride]
Conditions	mass density [kg/m3]
333.65 K	1195.33
338.68 K	1192.04
343.7 K	1187.98
347.72 K	1186.51
353.06 K	1184.13
359.06 K	1180.78
363.86 K	1177.41

surface tension liquid-gas [mN/m]
Conditions	Ring tensiometer	Wilhelmy Plate
333.66 K	67.02	–
333.67 K	–	66.84
338.7 K	66.37	66.5
343.19 K	–	66.13
343.24 K	66.48	–
348.1 K	66.18	–
348.11 K	–	65.78
352.35 K	–	65.4
352.38 K	65.96	–
359.12 K	65.47	–
359.17 K	–	64.87
363.94 K	65.12	–
364 K	–	64.58
